Test results from patent US20230210854A1, “MONO- AND COMBINATION THERAPIES” (Recurium IP Holdings, LLC, priority 2020, published 2023).

What was measured:
OPM-2 cells = test: CellTiter-Glo cell proliferation assay, OPM-2; format: cell-based; settings: Homo sapiens; OPM-2, 50 nM, 72 hrs
Experimental: (§1) Cell proliferation was measured using the CellTiter-Glo® Luminescent Cell Viability Assay. The assay involved the addition of a single reagent (CellTiter-Glo® Reagent) directly to cells cultured in serum-supplemented medium. KMS-12-BM, OPM-2 and MOLP8 cells were cultured according to DSMZ recommendations and were seeded at 20,000 cells per well. Each compound evaluated was prepared as a DMSO stock solution (10 mM). Compounds were tested in triplicate on each plate, with a single concentration indicated in each table. Compound treatment (10.0 µL) was added to the cells from the 10x concentration of each compound. Plates were then incubated at 37° C., 5% CO2. After 72 hrs, cell plates were equilibrated at room temperature (rt) for approximately 30 mins. An equi-volume amount of CellTiter-Glo® Reagent (100 µL) was added to each well. Plates were mixed for 2 mins on an orbital shaker to induce cell lysis and then incubated at rt for 10 mins to stabilize the luminescent signal. Luminescence was recorded using a SpectraMAX, M5e plate reader according to CellTiter-Glo protocol.

MOLP-8 cells = test: CellTiter-Glo cell proliferation assay, MOLP-8; format: cell-based; settings: Homo sapiens; MOLP-8, 2 nM, 72 hrs
Experimental: as §1

KMS-12-BM cells = test: CellTiter-Glo cell proliferation assay, KMS-12-BM; format: cell-based; settings: Homo sapiens, 90 nM, 72 hrs
Experimental: as §1

A427 cells = test: A427 cell growth study (DNA content, Hoechst 33258); format: cell-based; settings: suboptimal doses, single agent, Day 6
Experimental: Experiment method: 3000 of A427 cells were seeded in 96-well pates and allowed to adhere overnight. Treatments with Compound (1A) and/or Triapine were added the next day. Cells were harvested at Day 6 and were assayed for DNA content using Hoechst 33258. Fluorescence intensity was read at excitation 346 nm and emission 460 nm using a plate reader. Data shown in FIG. 27 are representative of three independent experiments (raw fluorescence reading).

TOV21G xenograft = TOV21G xenograft model; format: in vivo, BALB/c nude mice; settings: 50 mg/kg i.p. once per week
Experimental: TOV21G xenograft model was established by the inoculation of 200 µL of TOV-21G tumor cell suspension (5×10^6 cells/mouse, with 50% Matrigel) subcutaneously into the right subaxillary of BALB/c nude mice. When tumors reached approximately 100 to 150 mm^3, tumor bearing animals were randomly distributed into treatment groups of 10 animals each. Animals were orally dosed with vehicle or Compound (1A) at 60 mg/kg for 19 days, carboplatin at 50 mg/kg by the i.p. injection once per week, and Compound (1A) treatment in combination with carboplatin. Tumor volumes were evaluated twice per week to calculate tumor volume over time, and the mice were weighed twice per week as a surrogate for signs of toxicity.

OVCAR3 xenograft = test: OVCAR3 ovarian tumor model, Doxorubicin combination; format: in vivo, BABL/c nude mice; settings: OVCAR3, 2.5 mg/kg i.p. once per week for 4 weeks, single agent
Experimental: OVCAR3 xenograft model was established by the inoculation of 200 µL of OVCAR3 tumor cell suspension (1×10^7 cells/mouse, with 50% Matrigel) subcutaneously into the right subaxillary of BABL/c nude mice. When tumors reached approximately 180.8 mm^3, tumor bearing animals were randomly distributed into treatment groups of 10 animals each. […] Tumor volumes were evaluated twice per week to calculate tumor volume over time, and the mice were weighed twice per week as a surrogate for signs of toxicity.

x2-MDA-MB-468 tumor = test: x2 MDA-MB-468 TNBC tumor model, Niraparib combination; format: in vivo, mouse; settings: x2-MDA-MB-468, 45 mg/kg orally, 7 days on, 7 days off for 4 cycles
Experimental: The x2-MDA-MB-468 cells (ATCC-Chempartner) were maintained in vitro as a monolayer culture in DMEM medium added with 10% FBS, 100 U/mL penicillin and 100 µg/mL streptomycin at 37° C. in an atmosphere of 5% CO2 in air. Each mouse was implanted subcutaneously on right flank with 1 × 10^7 x2-MDA-MD-468 cells in 0.2 mL mixture of RPMI1640 medium with BD Matrigel (base medium: Matrigel=100 uL:100 uL) for tumor development. […] Tumor volumes were evaluated twice per week to calculate tumor volume over time, and the mice were weighed twice per week as a surrogate for signs of toxicity.

Nc1ccn([C@@H]2O[C@H](CO)[C@@H](O)C2(F)F)c(=O)n1 [Gemcitabine]
inhibition at 0.05 µM (OPM-2 cells): 35.1% | inhibition at 0.002 µM (MOLP-8 cells): 22% | inhibition at 0.09 µM (KMS-12-BM cells): 38%

NC(=S)N/N=C/c1ncccc1N [Triapine]
A427 cell growth (A427 cells): do not inhibit A427 cell growth

N.N.O=C([O-])C1(C(=O)[O-])CCC1.[Pt+2] [carboplatin]
TGI (TOV21G xenograft): 89.75%

COc1cccc2c1C(=O)c1c(O)c3c(c(O)c1C2=O)C[C@@](O)(C(=O)CO)C[C@@H]3O[C@H]1C[C@H](N)[C@H](O)[C@H](C)O1 [doxorubicin]
TGI (OVCAR3 xenograft): 43.11%

NC(=O)c1cccc2cn(-c3ccc([C@@H]4CCCNC4)cc3)nc12 [niraparib]
TGI (x2-MDA-MB-468 tumor): 47.7%
